Measurements published in patent US20100105655A1, “NOVEL COMPOUNDS 515” (ASTRAZENECA AB, priority 2008, published 2010).

These molecules were tested against T1, IGFR kinase (Homo sapiens, UniProt P08069) (assay: Enzyme assay (c), IGFR kinase, Caliper LabChip). Settings: not given.
T1 construct: purchased Millipore
Assay type: biochemical
Protocol: For Echo dosing the solvent was 100% DMSO. A master plate was prepared with 40 ul of 10 mM stock solution of the test compound in DMSO in quadrant 1 of a Labcyte 384 well plate. A 1 in 100 dilution was made from quadrant 1 into quadrant 2 by removing 0.4 ul and adding it to 39.6 ul of DMSO. Subsequent 1 in 100 dilutions were made into quadrant 3 from quadrant 2 and quadrant 4 from quadrant 3.
Multiple 2.5 nl droplets were dispensed from each quadrant of the master plate to generate the dose range that was required in the test. The dose range most commonly used was as follows: 100 uM, 30 uM, 10 uM, 3 uM, 1 uM, 0.3 uM, 0.1 uM, 0.03 uM, 0.01 uM, 0.003 uM, 0.001 uM, 0.0001 uM. Each well was backfilled with dimethyl sulfoxide (DMSO) to a total volume of 120 nl, such that when the enzyme and substrate mix was added the final DMSO concentration was 1%.
DMSO was added to max control wells as 120 nl, minimum control wells were treated with 120 nl of compound at a concentration that inhibited the enzyme activity 100%.
Integration of the substrate and product peaks was carried out using Caliper LabChip software and IC50 curves were calculated using Origin™ software.

T1 sequence (P08069 31-1367): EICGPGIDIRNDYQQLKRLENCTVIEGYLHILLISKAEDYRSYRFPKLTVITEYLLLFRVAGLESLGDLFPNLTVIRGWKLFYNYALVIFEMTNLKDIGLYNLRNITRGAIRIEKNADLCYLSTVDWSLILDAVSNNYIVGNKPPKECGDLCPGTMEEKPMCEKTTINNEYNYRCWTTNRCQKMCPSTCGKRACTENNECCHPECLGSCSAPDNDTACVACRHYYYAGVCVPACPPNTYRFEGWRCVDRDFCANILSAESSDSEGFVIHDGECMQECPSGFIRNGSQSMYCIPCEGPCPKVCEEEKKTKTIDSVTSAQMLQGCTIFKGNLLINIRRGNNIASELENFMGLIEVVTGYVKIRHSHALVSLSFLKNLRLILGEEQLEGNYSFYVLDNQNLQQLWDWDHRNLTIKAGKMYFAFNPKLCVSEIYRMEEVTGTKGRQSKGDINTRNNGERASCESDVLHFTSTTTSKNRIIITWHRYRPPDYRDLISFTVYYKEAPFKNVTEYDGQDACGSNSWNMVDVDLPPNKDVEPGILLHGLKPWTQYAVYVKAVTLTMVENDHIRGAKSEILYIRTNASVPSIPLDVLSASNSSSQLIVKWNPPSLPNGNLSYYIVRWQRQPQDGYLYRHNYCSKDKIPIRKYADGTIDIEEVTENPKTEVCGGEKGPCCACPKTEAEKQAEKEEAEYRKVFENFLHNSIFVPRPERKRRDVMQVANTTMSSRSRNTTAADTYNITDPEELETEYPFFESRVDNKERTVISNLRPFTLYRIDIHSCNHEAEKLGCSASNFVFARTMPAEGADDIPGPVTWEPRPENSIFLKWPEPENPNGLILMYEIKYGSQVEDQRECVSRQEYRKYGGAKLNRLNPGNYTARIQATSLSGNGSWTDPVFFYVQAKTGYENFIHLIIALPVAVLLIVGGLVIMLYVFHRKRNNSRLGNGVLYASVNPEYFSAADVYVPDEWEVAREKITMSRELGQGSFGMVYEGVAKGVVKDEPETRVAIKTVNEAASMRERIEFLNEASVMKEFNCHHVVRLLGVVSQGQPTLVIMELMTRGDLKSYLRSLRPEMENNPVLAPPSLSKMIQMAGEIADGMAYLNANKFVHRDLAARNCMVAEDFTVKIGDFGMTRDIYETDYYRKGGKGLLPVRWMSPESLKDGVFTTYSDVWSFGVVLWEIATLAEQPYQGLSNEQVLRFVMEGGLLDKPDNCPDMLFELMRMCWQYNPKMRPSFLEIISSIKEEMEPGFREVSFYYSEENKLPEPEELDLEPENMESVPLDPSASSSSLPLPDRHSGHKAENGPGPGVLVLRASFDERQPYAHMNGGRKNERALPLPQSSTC

IC50 [nM]	SMILES
7	COc1cc(N2CC3CNCC(C2)O3)ccc1Nc1ncc(Cl)c(-c2cnc3c(F)cccn23)n1 [Example 183, 5-chloro-4-(8-fluoroimidazo[1,2-a]pyridin-3-yl)-N-[2-methoxy-4-(9-oxa-3,7-diazabicyclo[3.3.1]nonan-7-yl)phenyl]pyrimidin-2-amine]

Same assay, conditions: 30 nM IGFR kinase, 6 uM ATP, 3 uM peptide mix; read-out: IGFR IC50

SMILES	IC50 [nM]
COc1cc(O[C@@H]2CCN(C(=O)C(C)O)C2)ccc1Nc1ncc(Cl)c(-c2cnc3ccccn23)n1 (mixture of isomers) [Example 12, 1-[(3R)-3-[4-[(5-chloro-4-imidazo[1,2-a]pyridin-3-yl-pyrimidin-2-yl)amino]-3-methoxy-phenoxy]pyrrolidin-1-yl]-2-hydroxy-propan-1-one]	22
COc1cc(OC[C@@H]2CCCN2C(C)=O)ccc1Nc1ncc(Cl)c(-c2cnc3ccccn23)n1 [Example 16, 1-[(2S)-2-[[4-[(5-chloro-4-imidazo[1,2-a]pyridin-3-yl-pyrimidin-2-yl)amino]-3-methoxy-phenoxy]methyl]pyrrolidin-1-yl]ethanone]	32
COc1cc(N2CCN(C(C)=O)CC2)ccc1Nc1ncc(C2CC2)c(-c2cnc3c(F)cccn23)n1 [Example 201, 1-[4-[4-[[5-cyclopropyl-4-(8-fluoroimidazo[1,2-a]pyridin-3-yl)pyrimidin-2-yl]amino]-3-methoxy-phenyl]piperazin-1-yl]ethanone]	88
COc1cc(N2CCN(S(=O)(=O)N(C)C)CC2)ccc1Nc1ncc(F)c(-c2cnc3ccccn23)n1 [Example 74, 4-[4-[(5-fluoro-4-imidazo[1,2-a]pyridin-3-yl-pyrimidin-2-yl)amino]-3-methoxy-phenyl]-N,N-dimethyl-piperazine-1-sulfonamide]	42
COc1cc(CC(=O)N2CCN(CCO)CC2)ccc1Nc1ncc(Cl)c(-c2cnc3ccccn23)n1 [Example 37, 2-[4-[(5-chloro-4-imidazo[1,2-a]pyridin-3-yl-pyrimidin-2-yl)amino]-3-methoxy-phenyl]-1-[4-(2-hydroxyethyl)piperazin-1-yl]ethanone]	31
COc1cc(C2CCN(C(C)=O)CC2)ccc1Nc1ncc(C)c(-c2cnc3ccccn23)n1 [Example 99, 1-[4-[4-[(4-imidazo[1,2-a]pyridin-3-yl-5-methyl-pyrimidin-2-yl)amino]-3-methoxy-phenyl]-1-piperidyl]ethanone]	24
COc1cc(C2CCN(C(=O)[C@@H](C)O)CC2)ccc1Nc1ncc(C)c(-c2cnc3c(F)cccn23)n1 [Example 200, (2R)-1-[4-[4-[[4-(8-fluoroimidazo[1,2-a]pyridin-3-yl)-5-methyl-pyrimidin-2-yl]amino]-3-methoxy-phenyl]-1-piperidyl]-2-hydroxy-propan-1-one]	32
COc1cc(C)c(Nc2ncc(Br)c(-c3cnc4ccccn34)n2)cc1OC [Example 124, 5-bromo-N-(4,5-dimethoxy-2-methyl-phenyl)-4-imidazo[1,2-a]pyridin-3-yl-pyrimidin-2-amine]	31
COc1cc(O[C@@H]2CCN(C(C)=O)C2)ccc1Nc1ncc(Cl)c(-c2cnc3ccccn23)n1 [Example 10, 1-[(3R)-3-[4-[(5-chloro-4-imidazo[1,2-a]pyridin-3-yl-pyrimidin-2-yl)amino]-3-methoxy-phenoxy]pyrrolidin-1-yl]ethanone]	20
COc1cc(N2CCN(C(=O)CO)CC2)ccc1Nc1ncc(Cl)c(-c2cnc3c(F)cccn23)n1 [Example 180, 1-[4-[4-[[5-chloro-4-(8-fluoroimidazo[1,2-a]pyridin-3-yl)pyrimidin-2-yl]amino]-3-methoxy-phenyl]piperazin-1-yl]-2-hydroxy-ethanone]	25
COc1cc(N2CCNCC2)ccc1Nc1ncc(F)c(-c2cnc3ccccn23)n1 [Example 73, 5-fluoro-4-imidazo[1,2-a]pyridin-3-yl-N-(2-methoxy-4-piperazin-1-yl-phenyl)pyrimidin-2-amine]	71
COc1cc(N2CCCC2C(=O)N2CCOCC2)ccc1Nc1ncc(Cl)c(-c2cnc3ccccn23)n1 (centres unmarked) [Example 3.2, [1-[4-[(5-chloro-4-imidazo[1,2-a]pyridin-3-yl-pyrimidin-2-yl)amino]-3-methoxy-phenyl]pyrrolidin-2-yl]-morpholino-methanone]	54
COc1cc(OC2CCN(C(=O)C(C)O)CC2)ccc1Nc1ncc(Cl)c(-c2cnc3ccccn23)n1 (centres unmarked) [Example 9, 1-[4-[4-[(5-chloro-4-imidazo[1,2-a]pyridin-3-yl-pyrimidin-2-yl)amino]-3-methoxy-phenoxy]-1-piperidyl]-2-hydroxy-propan-1-one]	21

Other lines, results leading:

IC50 [nM]	SMILES
20	COc1cc(CN2CCN(CCO)CC2)ccc1Nc1ncc(Cl)c(-c2cnc3ccccn23)n1 [Example 21.8, 2-[4-[[4-[(5-chloro-4-imidazo[1,2-a]pyridin-3-yl-pyrimidin-2-yl)amino]-3-methoxy-phenyl]methyl]piperazin-1-yl]ethanol]
20	COc1cc(O[C@H]2CCN(C(C)=O)C2)ccc1Nc1ncc(Cl)c(-c2cnc3ccccn23)n1 [Example 13, 1-[(3S)-3-[4-[(5-chloro-4-imidazo[1,2-a]pyridin-3-yl-pyrimidin-2-yl)amino]-3-methoxy-phenoxy]pyrrolidin-1-yl]ethanone]
20	COc1cc(N2CCN(C(C)(C)CO)CC2)ccc1Nc1ncc(C)c(-c2cnc3ccccn23)n1 [Example 229, 2-[4-[4-[(4-imidazo[1,2-a]pyridin-3-yl-5-methyl-pyrimidin-2-yl)amino]-3-methoxy-phenyl]piperazin-1-yl]-2-methyl-propan-1-ol]
19	COc1cc(N2CCN(C(C)=O)CC2)cc(F)c1Nc1ncc(Cl)c(-c2cnc3ccccn23)n1 [Example 3.26, 1-[4-[4-[(5-chloro-4-imidazo[1,2-a]pyridin-3-yl-pyrimidin-2-yl)amino]-3-fluoro-5-methoxy-phenyl]piperazin-1-yl]ethanone]
15	COc1cc(N2CCN(C(C)=O)CC2)ccc1Nc1ncc(Cl)c(-c2cnc3cc(Br)ccn23)n1 [Example 126.19, 1-[4-[4-[[4-(7-bromoimidazo[1,2-a]pyridin-3-yl)-5-chloro-pyrimidin-2-yl]amino]-3-methoxy-phenyl]piperazin-1-yl]ethanone]
15	COc1cc(C2CCN(C(=O)[C@@H](C)O)CC2)ccc1Nc1ncc(C)c(-c2cnn3ccccc23)n1 [Example 164, (2R)-2-hydroxy-1-[4-[3-methoxy-4-[(5-methyl-4-pyrazolo[1,5-a]pyridin-3-yl-pyrimidin-2-yl)amino]phenyl]-1-piperidyl]propan-1-one]
14	COc1cc(OC2CN(C(=O)[C@@H](C)O)C2)ccc1Nc1ncc(Cl)c(-c2cnc3ccccn23)n1 [Example 27.6, (2R)-1-[3-[4-[(5-chloro-4-imidazo[1,2-a]pyridin-3-yl-pyrimidin-2-yl)amino]-3-methoxy-phenoxy]azetidin-1-yl]-2-hydroxy-propan-1-one]
13	COc1cc(OC[C@H]2CCCN2C(C)=O)ccc1Nc1ncc(OC)c(-c2cnc3ccccn23)n1 [Example 114, 1-[(2R)-2-[[4-[(4-imidazo[1,2-a]pyridin-3-yl-5-methoxy-pyrimidin-2-yl)amino]-3-methoxy-phenoxy]methyl]pyrrolidin-1-yl]ethanone]
10	COc1cc(N(C)CCN(C)CCO)ccc1Nc1ncc(Cl)c(-c2cnc3c(F)cccn23)n1 [Example 221, 2-[2-[4-[[5-chloro-4-(8-fluoroimidazo[1,2-a]pyridin-3-yl)pyrimidin-2-yl]amino]-3-methoxy-N-methyl-anilino]ethyl-methyl-amino]ethanol]
9	COc1cc(C2CCN(C(C)=O)CC2)ccc1Nc1ncc(C)c(-c2cnn3ccccc23)n1 [Example 233, 1-[4-[3-methoxy-4-[(5-methyl-4-pyrazolo[1,5-a]pyridin-3-yl-pyrimidin-2-yl)amino]phenyl]-1-piperidyl]ethanone]
9	COc1cc(N2CCN(C(=O)CO)CC2)ccc1Nc1ncc(Cl)c(-c2cnc3cc(C)ccn23)n1 [Example 251, 1-[4-[4-[[5-chloro-4-(7-methylimidazo[1,2-a]pyridin-3-yl)pyrimidin-2-yl]amino]-3-methoxy-phenyl]piperazin-1-yl]-2-hydroxy-ethanone]
8	COc1cc(N2CCN(C(C)=O)C(C)C2)ccc1Nc1ncc(Cl)c(-c2cnc3ccccn23)n1 (centres unmarked) [Example 3.36, 1-[4-[4-[(5-chloro-4-imidazo[1,2-a]pyridin-3-yl-pyrimidin-2-yl)amino]-3-methoxy-phenyl]-2-methyl-piperazin-1-yl]ethanone]
6	COc1cc(N2CCN(C(=O)[C@@H](N)C(C)C)CC2)ccc1Nc1ncc(Cl)c(-c2cnc3ccccn23)n1 [Example 24.6, (2S)-2-amino-1-[4-[4-[(5-chloro-4-imidazo[1,2-a]pyridin-3-yl-pyrimidin-2-yl)amino]-3-methoxy-phenyl]piperazin-1-yl]-3-methyl-butan-1-one]
3	CNC(=O)C1CCN(c2ccc(Nc3ncc(Cl)c(-c4cnc5c(F)cccn45)n3)c(OC)c2)CC1 [Example 222, 1-[4-[[5-chloro-4-(8-fluoroimidazo[1,2-a]pyridin-3-yl)pyrimidin-2-yl]amino]-3-methoxy-phenyl]-N-methyl-piperidine-4-carboxamide]
3	COc1cc(C2CCN(C(=O)CO)CC2)ccc1Nc1ncc(Cl)c(-c2cnn3ccccc23)n1 [Example 137, 1-[4-[4-[(5-chloro-4-pyrazolo[1,5-a]pyridin-3-yl-pyrimidin-2-yl)amino]-3-methoxy-phenyl]-1-piperidyl]-2-hydroxy-ethanone]
